Experimental data: patent US9249129B2, “Morpholino substituted urea derivatives as mTOR inhibitors” (CELLZOME LIMITED, priority 2010, dated 2016)

What was measured:
Assay in all cases: kinobeads assay with mass spectrometry detection of kinases (kinase selectivity profile)
Assay type in all cases: binding
kinases (kinome) [1] = molecular target: T1, kinases (kinome) (Homo sapiens, UniProt P42345); settings: mTOR (Atypical), IPI00031410; 0.1 μM ranges
T1 construct: determined in kinobeads assays with mass spectrometry detection of kinases as described previously; endogenous in cells; host or cells: cell lysate
Text: (§1) The protein kinase complement of the human genome (the kinome) was described previously (Manning et al., 2002. Science 298(5600):1912-1934). Sequence accession numbers are defined by the International Protein Index (IPI) (Kersey et al., 2004. Proteomics 4(7):1985-1988).

kinases (kinome) [2] = molecular target: T2, kinases (kinome) (Homo sapiens, UniProt Q9NYL2); settings: ZAK (TKL), IPI00329638
T2 construct: determined in kinobeads assays with mass spectrometry detection of kinases as described previously; endogenous in cells; host or cells: cell lysate
T2 sequence (Q9NYL2 whole entry): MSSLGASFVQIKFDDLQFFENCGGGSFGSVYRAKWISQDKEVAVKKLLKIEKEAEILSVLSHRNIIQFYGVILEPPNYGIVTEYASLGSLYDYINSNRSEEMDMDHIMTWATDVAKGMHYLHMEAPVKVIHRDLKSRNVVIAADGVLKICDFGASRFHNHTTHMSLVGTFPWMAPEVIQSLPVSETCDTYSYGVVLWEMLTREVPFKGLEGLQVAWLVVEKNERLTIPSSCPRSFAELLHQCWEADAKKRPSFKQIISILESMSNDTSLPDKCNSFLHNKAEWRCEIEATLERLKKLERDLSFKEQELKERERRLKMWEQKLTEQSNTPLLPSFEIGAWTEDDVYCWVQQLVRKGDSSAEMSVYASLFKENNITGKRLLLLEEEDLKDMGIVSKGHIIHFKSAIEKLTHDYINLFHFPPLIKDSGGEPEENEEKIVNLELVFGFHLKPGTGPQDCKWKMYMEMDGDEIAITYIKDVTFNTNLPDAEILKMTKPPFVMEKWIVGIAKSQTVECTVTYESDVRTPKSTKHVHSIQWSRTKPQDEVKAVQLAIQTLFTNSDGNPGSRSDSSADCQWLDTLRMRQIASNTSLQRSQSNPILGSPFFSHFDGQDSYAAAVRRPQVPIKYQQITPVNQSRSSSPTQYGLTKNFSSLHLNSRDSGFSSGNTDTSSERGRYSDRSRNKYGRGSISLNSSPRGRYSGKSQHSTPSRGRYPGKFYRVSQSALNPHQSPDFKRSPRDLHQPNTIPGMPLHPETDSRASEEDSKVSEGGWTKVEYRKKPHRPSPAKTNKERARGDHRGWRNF
Text: as §1

kinases (kinome) [3] = molecular target: T3, kinases (kinome) (Homo sapiens, UniProt Q96L34); settings: MARK4 (CAMK), IPI00064797
T3 construct: determined in kinobeads assays with mass spectrometry detection of kinases as described previously; endogenous in cells; host or cells: cell lysate
T3 sequence (Q96L34 1-752): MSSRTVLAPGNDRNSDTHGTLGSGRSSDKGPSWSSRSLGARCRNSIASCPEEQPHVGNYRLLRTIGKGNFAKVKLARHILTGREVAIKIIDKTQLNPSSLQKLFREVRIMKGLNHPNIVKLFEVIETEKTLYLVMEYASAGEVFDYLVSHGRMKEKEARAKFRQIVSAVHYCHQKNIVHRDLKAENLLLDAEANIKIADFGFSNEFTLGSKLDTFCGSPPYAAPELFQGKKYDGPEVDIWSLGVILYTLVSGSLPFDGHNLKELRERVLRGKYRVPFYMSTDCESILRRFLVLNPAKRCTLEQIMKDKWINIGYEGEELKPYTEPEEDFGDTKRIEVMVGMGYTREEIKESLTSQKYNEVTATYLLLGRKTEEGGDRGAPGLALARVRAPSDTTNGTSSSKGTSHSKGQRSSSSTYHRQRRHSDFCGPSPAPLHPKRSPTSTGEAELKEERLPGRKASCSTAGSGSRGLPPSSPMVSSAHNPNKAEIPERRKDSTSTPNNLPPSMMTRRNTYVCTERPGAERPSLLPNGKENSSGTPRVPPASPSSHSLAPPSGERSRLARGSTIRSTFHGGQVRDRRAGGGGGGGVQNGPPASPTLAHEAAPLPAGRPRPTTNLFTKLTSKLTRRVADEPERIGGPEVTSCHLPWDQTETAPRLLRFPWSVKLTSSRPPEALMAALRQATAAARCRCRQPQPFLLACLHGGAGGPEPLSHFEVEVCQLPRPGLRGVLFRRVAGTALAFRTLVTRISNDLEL
Text: as §1

kinases (kinome) [4] = molecular target: T4, kinases (kinome) (Homo sapiens, UniProt P49674); settings: CK1e (CK1), IPI00027729
T4 construct: determined in kinobeads assays with mass spectrometry detection of kinases as described previously; endogenous in cells; host or cells: cell lysate
T4 sequence (P49674 whole entry): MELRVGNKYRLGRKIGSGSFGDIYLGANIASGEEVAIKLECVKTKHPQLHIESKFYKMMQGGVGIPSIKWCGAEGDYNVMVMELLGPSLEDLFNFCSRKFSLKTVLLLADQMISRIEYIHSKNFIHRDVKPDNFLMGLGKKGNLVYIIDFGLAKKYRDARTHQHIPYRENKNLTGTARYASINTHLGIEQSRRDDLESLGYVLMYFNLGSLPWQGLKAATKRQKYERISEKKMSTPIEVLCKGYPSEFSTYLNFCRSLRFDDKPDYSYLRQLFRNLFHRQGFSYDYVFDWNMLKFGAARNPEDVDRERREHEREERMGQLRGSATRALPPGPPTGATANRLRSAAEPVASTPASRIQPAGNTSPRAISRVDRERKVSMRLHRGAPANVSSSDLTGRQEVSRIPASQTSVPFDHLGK
Text: as §1

kinases (kinome) [5] = molecular target: T5, kinases (kinome) (Homo sapiens, UniProt P50613); settings: CDK7 (CMGC), IPI00000685
T5 construct: determined in kinobeads assays with mass spectrometry detection of kinases as described previously; endogenous in cells; host or cells: cell lysate
T5 sequence (P50613 whole entry): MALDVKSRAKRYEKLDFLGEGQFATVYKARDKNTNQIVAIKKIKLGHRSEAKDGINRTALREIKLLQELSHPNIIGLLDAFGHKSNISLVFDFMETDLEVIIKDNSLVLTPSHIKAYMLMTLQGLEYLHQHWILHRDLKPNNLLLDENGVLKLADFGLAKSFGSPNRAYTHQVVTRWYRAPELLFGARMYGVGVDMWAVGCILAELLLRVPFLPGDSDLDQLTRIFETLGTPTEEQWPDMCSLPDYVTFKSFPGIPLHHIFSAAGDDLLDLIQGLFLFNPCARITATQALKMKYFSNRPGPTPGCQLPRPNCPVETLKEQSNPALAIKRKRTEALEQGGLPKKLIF
Text: as §1

kinases (kinome) [6] = molecular target: T6, kinases (kinome) (Homo sapiens, UniProt Q13163); settings: MAP2K5 (STE), IPI00158248
T6 construct: determined in kinobeads assays with mass spectrometry detection of kinases as described previously; endogenous in cells; host or cells: cell lysate
T6 sequence (Q13163 1-448): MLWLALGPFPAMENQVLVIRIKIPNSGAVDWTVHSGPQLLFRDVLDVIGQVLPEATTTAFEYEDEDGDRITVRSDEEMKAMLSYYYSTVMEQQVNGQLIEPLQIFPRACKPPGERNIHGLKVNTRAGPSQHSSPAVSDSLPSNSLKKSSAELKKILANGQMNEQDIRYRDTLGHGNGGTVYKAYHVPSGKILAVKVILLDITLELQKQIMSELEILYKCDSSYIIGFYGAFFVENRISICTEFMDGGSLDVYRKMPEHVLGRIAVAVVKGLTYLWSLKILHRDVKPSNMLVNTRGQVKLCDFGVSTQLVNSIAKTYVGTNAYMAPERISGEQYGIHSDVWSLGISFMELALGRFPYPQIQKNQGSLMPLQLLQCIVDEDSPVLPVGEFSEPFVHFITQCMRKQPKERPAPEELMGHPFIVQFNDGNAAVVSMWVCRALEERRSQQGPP
Text: as §1

kinases (kinome) [7] = molecular target: T7, kinases (kinome) (Homo sapiens, UniProt Q00534); settings: CDK6 (CMGC), IPI00023529
T7 construct: determined in kinobeads assays with mass spectrometry detection of kinases as described previously; endogenous in cells; host or cells: cell lysate
T7 sequence (Q00534 whole entry): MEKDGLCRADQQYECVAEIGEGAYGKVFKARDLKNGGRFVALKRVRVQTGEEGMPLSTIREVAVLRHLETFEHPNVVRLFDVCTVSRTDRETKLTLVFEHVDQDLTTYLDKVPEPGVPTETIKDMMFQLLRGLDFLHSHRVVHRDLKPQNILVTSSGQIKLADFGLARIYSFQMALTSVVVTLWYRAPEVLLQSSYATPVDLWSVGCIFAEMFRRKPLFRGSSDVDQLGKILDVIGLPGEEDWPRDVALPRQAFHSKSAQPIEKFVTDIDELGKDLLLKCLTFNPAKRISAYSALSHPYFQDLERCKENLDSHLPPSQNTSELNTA
Text: as §1

kinases (kinome) [8] = molecular target: T8, kinases (kinome) (Homo sapiens, UniProt Q9UHD2); settings: TBK1 (Other), IPI00293613
T8 construct: determined in kinobeads assays with mass spectrometry detection of kinases as described previously; endogenous in cells; host or cells: cell lysate
T8 sequence (Q9UHD2 1-729): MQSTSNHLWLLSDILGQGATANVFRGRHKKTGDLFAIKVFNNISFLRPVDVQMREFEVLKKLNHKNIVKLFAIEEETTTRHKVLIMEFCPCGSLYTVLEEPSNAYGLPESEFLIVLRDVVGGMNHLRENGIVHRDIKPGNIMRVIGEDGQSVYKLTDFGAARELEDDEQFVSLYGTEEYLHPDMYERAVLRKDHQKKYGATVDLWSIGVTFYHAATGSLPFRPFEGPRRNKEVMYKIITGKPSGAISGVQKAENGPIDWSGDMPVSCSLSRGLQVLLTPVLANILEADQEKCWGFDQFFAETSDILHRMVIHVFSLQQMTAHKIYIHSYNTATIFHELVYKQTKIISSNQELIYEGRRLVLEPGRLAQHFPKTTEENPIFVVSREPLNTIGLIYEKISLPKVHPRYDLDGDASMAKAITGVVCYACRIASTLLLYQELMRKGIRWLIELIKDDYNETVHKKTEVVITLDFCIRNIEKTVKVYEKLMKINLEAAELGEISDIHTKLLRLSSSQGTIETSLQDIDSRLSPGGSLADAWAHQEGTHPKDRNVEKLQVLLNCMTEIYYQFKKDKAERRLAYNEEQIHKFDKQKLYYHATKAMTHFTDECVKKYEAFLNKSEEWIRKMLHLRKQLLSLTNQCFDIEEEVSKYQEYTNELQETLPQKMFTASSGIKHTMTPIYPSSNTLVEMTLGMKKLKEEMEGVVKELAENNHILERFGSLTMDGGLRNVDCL
Text: as §1

IC50 (kinases (kinome) [1]) [µM] | IC50 (kinases (kinome) [2]) [µM] | IC50 (kinases (kinome) [3]) [µM] | IC50 (kinases (kinome) [4]) [µM] | IC50 (kinases (kinome) [5]) [µM] | IC50 (kinases (kinome) [6]) [µM] | IC50 (kinases (kinome) [7]) [µM] | IC50 (kinases (kinome) [8]) [µM] | Structure (SMILES)
0.1 to 0.2 | > 10 | > 10 | > 10 | > 10 | > 10 | > 10 | > 10 | C[C@H]1COCCN1c1nc(-c2ccc(NC(=O)NC3CC3)cc2)cc(-c2cc(F)ccc2S(C)(=O)=O)n1 [Example 40, (S)-1-cyclopropyl-3-(4-(6-(5-fluoro-2-(methylsulfonyl)phenyl)-2-(3-methylmorpholino)pyrimidin-4-yl)phenyl)urea]
0.1 to 0.2 | > 10 | > 10 | > 10 | > 10 | > 10 | > 10 | > 10 | C[C@H]1COCCN1c1cc(-c2ccccc2S(C)(=O)=O)nc(-c2ccc(NC(=O)NC3CC3)cc2)n1 [Example 6, (S)-1-cyclopropyl-3-(4-(4-(3-methylmorpholino)-6-(2-(methylsulfonyl)phenyl)pyrimidin-2-yl)phenyl)urea]
0.1 to 0.2 | > 10 | > 10 | > 10 | > 10 | > 10 |  | > 10 | CCNC(=O)Nc1ccc(-c2cc(-c3ccccc3C#N)nc(N3CCOC[C@@H]3C)n2)cc1 [Example 8, (S)-1-(4-(6-(2-cyanophenyl)-2-(3-methylmorpholino)pyrimidin-4-yl)phenyl)-3-ethylurea]
0.2 to 0.3 | > 10 | > 10 | > 10 | > 10 | > 10 | > 10 | > 10 | C[C@H]1COCCN1c1nc(-c2ccc(NC(=O)NC3CC3)cc2)cc(-c2cccnc2S(C)(=O)=O)n1 [Example 46, (S)-1-cyclopropyl-3-(4-(2-(3-methylmorpholino)-6-(2-(methylsulfonyl)pyridin-3-yl)pyrimidin-4-yl)phenyl)urea]
0.1 to 0.2 | > 10 | > 10 | > 10 | > 10 | > 10 | > 10 | > 10 | C[C@H]1COCCN1c1nc(-c2ccc(NC(=O)N[C@H]3CCC[C@@H]3O)cc2)cc(-c2cc(F)ccc2S(C)(=O)=O)n1 [Example 76, 1-(4-(6-(5-fluoro-2-(methylsulfonyl)phenyl)-2-((S)-3-methylmorpholino)pyrimidin-4-yl)phenyl)-3-((1S,2S)-2-hydroxycyclopentyl)urea]
0.1 to 0.2 | > 10 | > 10 | > 10 | > 10 | > 10 | > 10 | > 10 | C[C@H]1COCCN1c1cc(-c2ccccn2)nc(-c2ccc(NC(=O)NCCO)cc2)n1 [Example 43, (S)-1-(2-hydroxyethyl)-3-(4-(4-(3-methylmorpholino)-6-(pyridin-2-yl)pyrimidin-2-yl)phenyl)urea]
0.3 to 0.4 | > 10 | > 10 | > 10 | > 10 | > 10 | > 10 | > 10 | C[C@H]1COCCN1c1nc(-c2ccc(NC(=O)NC3CC3)cc2)cc(-c2ccccc2S(C)(=O)=O)n1 [Example 4, (S)-1-cyclopropyl-3-(4-(2-(3-methylmorpholino)-6-(2-(methylsulfonyl)phenyl)pyrimidin-4-yl)phenyl)urea]
